The source of these data is patent US5885995A, “Inhibitors of farnesyl-protein transferase” (Merck & Co., Inc., priority 1997, dated 1999).

The target of the assay is T1, human FPTase (Homo sapiens, UniProt P49354+P49356).
T1 construct: made in house
Put plainly: In vitro inhibition of human farnesyl-protein transferase (FPTase). The following applies: [3H]-FPP, 100 nM Ras-CVIM, 30 min, read-out: IC50 (inhibitory activity against human FPTase). In kind it is biochemical.

Each structure is given as a SMILES string. Structures can show the parent of a compound that is named as a salt. A value given as a limit tells only on which side of the number the result lay.

With `N#Cc1ccc(Cn2cncc2CN2CCN(c3cccc(Cl)c3)CC2=O)cc1` [Example 1, 4-(3-Chlorophenyl)-1-[1-(4-cyanobenzyl)-5-imidazolylmethyl]-2-piperazinone hydrochloride], the IC50 (usually the midpoint of a concentration-inhibition curve) was no more than 10 µM.
